Our source for the Masking and Harmonizing values is patent publication US20060159639A1, “Pseudo body odor composition and perfume composition for inhibiting body odor” (priority 2003, published 2006).

The nature of this assay: Suppression test of Experimental Example 1: masking and harmonizing effect in a cup, four expert panelists.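 On Harmonizing: score 1 means in harmony 0 indefinite and −1 not in harmony.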 The conditions noted are these: 200 μl pseudo body odor composition of Example 4 and 10 μl perfume on filter papers in sealed about 500 ml cup, after 30 minutes, four expert panelists; for Masking: scale 0-3; for Harmonizing: scale −1 to 1. The protocol: In the present invention, the selection of the above component (I), component (II) and component (III) was carried out as follows. That is, one of the pseudo body odor compositions mentioned above and a target fragrance component were mixed and left at room temperature for 30 minutes. Thereafter, evaluations of the masking and harmonizing effects to the acid odor were carried out by four expert panelists.
After 30 minutes, a hole of about 1 cm in diameter was formed in the aluminum foil and the investigations of masking effect and the harmonizing effect were carried out according to following evaluation criteria by four expert panelists.
3: Excellent in the masking.
2: Substantially excellent in the masking.
1: Slightly sensible of the body odor (sweat odor and armpit odor).
0: Sensible of the body odor (sweat odor and armpit odor) (insufficient in the masking)

Take “2-butyl-4,6-dimethyl-dihydro-pyran [Vigorose]”: the Masking is 3 and the Harmonizing came out at 1.
Molecule `C=CC(C)(O)CCC=C(C)CC` (mixture of isomers) [Ethyl linalool] showed a Masking of 1.5 points and a Harmonizing of 0.
`Cc1cccc(CC(C)(C)CO)c1` [2,2-Dimethyl-3-(3-methylphenyl)propanol] showed a Masking of 0.5 points and a Harmonizing of −1.
The matching figures for `CC(C)=CCCC(C)CCCC(C)C=O` (stereo not shown) [2,6,10-Trimethyl-9-undecenal]: 1 and −1.
The corresponding values for `CC(C)=CCCC(C)C=O` (stereo not shown) [2,6-Dimethyl-5-heptenal] are 3 and 1.
Take `CCCCCCCCCC(C)C=O` (stereo not shown) [2-Methyl undecanal]: the Harmonizing amounted to 0.
As to `CC(CO)c1ccccc1` (stereo not shown) [2-Phenyl propanol], the Masking was determined as 1 and the Harmonizing is −1.
The matching figures for `CC(=O)OC1CCCCC1C(C)(C)C` (stereo not shown) [2-tert-Butylcyclohexyl acetate]: 2 and 1.
The molecule `COc1ccc(C=O)cc1` [4-Methoxybenzaldehyde] came in with a Masking of 2.5 points and a Harmonizing of 1.
Consider `CCC=C(C)C(O)CCCCC` (stereo not shown) [4-Methyl-3-decene-5-ol], for which the Masking is listed as 2.5 points and the Harmonizing is 0.
Molecule `O=CCCC=C1CC2CC1C1CCCC21` (stereo not shown) [4-Tricyclodecylene butanal] registered a Masking of 1.5 points and a Harmonizing of 0.
The corresponding values for `CC(=O)c1c(C)cc(C(C)(C)C)cc1C` [4-tert-Butyl-2,6-dimethylacetophenone] are 2 and 0.
The corresponding values for `CCCOC(C)OCCc1ccccc1` (stereo not shown) [Acetoaldehydephenylethylpropyl acetal] are 2.5 points and 1.
Molecule `C=CCOC(=O)COCCC(C)C` [Allyl amyl glycolate] gave a Masking of 3 and a Harmonizing of 1.
`C=CCOC(=O)CCCCC` [Allyl caproate] registered a Masking of 3 and a Harmonizing of 1.
The matching figures for `C=CCOC(=O)CCC1CCCCC1` [Allyl cyclohexyl propionate]: 2 and 0.
Molecule `C=CCCC(=O)/C=C/C1C(C)=CCCC1(C)C` (stereo not shown) [Allylionone] yielded a Masking of 2.5 points and a Harmonizing of 0.
Molecule `CCC(O)COC1CCCCC1C(C)(C)C` (stereo not shown) [Amber core, 1-(2-tert-butylcyclohexyloxy)butane-2-ol] came in with a Masking of 0.5 points and a Harmonizing of −1.
For the molecule `CCCC(O)CCC1C(C)CCCC1(C)C` (stereo not shown) [Ambestol, 1-(2,2,6-trimethylcyclohexyl)-3-hexanol], the Masking worked out at 0 and the Harmonizing is −1.
For `O=C1CCCC=CCCCCCCCCCC1` [Ambretone, 5-cyclohexadecene-l-one], the Masking amounted to 1.5 points and the Harmonizing is recorded as 0.
The corresponding values for `CC1(C)CCCC2(C)C1CCC1(C)OCCC12` (stereo not drawn) [Ambroxan, Decahydro-3α, 6,6,9α-tetramethyldodecanhydronaphto[2,1-b]furan] are 2 and 1.
The molecule `CCCCCOC(=O)c1ccccc1O` [Amyl salicylate] came in with a Masking of 1 and a Harmonizing of 0.
Turning to `COc1ccc(COC(C)=O)cc1` [Anisyl acetate], the Masking amounted to 1.5 points and the Harmonizing is given as 0.
The corresponding values for `COC(=O)c1ccccc1N=CCC(C)CCCC(C)(C)O` (stereo not shown) [Aurantiol, Hydoroxycitronellylidene methyl anthranilate] are 2 and 1.
`CC(=O)OCc1ccccc1` [Benzyl acetate] yielded a Masking of 2.5 points and a Harmonizing of 1.
`O=C(OCc1ccccc1)c1ccccc1O` [Benzyl salicylate] had a Masking of 1 and a Harmonizing of −1.
Regarding `CC1(C)C2CCC1(C)C(O)C2` (stereo not shown) [Borneol], the Masking was determined as 2.5 points and the Harmonizing is on record as 1.
As for `CC12CCC(CC1=O)C2(C)C` (stereo not shown) [Camphor], the Masking was 3 and the Harmonizing stood at 1.
In turn, `CC(=O)O[C@]1(C)CC[C@@]23C[C@@H]1C(C)(C)[C@@H]2CC[C@H]3C` [Cedryl acetate] yielded a Masking of 0 and a Harmonizing of −1.
The corresponding values for `CO[C@]1(C)CC[C@@]23C[C@@H]1C(C)(C)[C@@H]2CC[C@H]3C` [Cedryl methyl ether] are 1 and −1.
`O=C/C=C/c1ccccc1` [Cinnamic aldehyde] showed a Masking of 2 and a Harmonizing of 0.
The molecule `CC(C)=CCCC(C)=CC=O` [Citral] came in with a Masking of 3 and a Harmonizing of 1.
`CC(C)=CCCC(C)CC=O` (stereo not shown) [Citronellal]: the Masking is 3 and the Harmonizing is listed as 1.
With `CC(C)=CCCC(C)CCO` (stereo not shown) [Citronellol], the Masking is 2.5 points and the Harmonizing is given as 1.
The molecule `CC(=O)OCCC(C)CCC=C(C)C` (stereo not shown) [Citronellyl acetate] returned a Masking of 1.5 points and a Harmonizing of 0.
`CC(C)=CCCC(C)CC#N` (stereo not shown) [Citronellyl nitrile] registered a Masking of 3 and a Harmonizing of 1.
On to `O=c1ccc2ccccc2o1` [Coumarin], for which the Harmonizing is listed as 1.
`CC(C)c1ccc(C=O)cc1` [Cumin aldehyde] came in with a Masking of 1.5 points and a Harmonizing of −1.
The matching figures for `CC(C=O)Cc1ccc(C(C)C)cc1` (stereo not shown) [Cyclamen aldehyde, 2-methyl-3-(4-isopropylphenyl)propanal]: 1.5 points and −1.
`CCC(=O)OC1CC2CC1C1CC=CC21` (stereo not shown) [Cyclaprop, tricyclodecenyl propionate] returned a Masking of 1 and a Harmonizing of −1.
The matching figures for `C=CCOC(=O)COC1CCCCC1` [Cyclogalbanate, allyl cyclohexyl oxyacetate]: 2.5 points and 1.
Molecule `C/C=C/C(=O)C1=C(C)C=CCC1(C)C` [Damascenone] yielded a Masking of 2 and a Harmonizing of 1.
Consider `CCCCCCCCCC=O` [Decanal], for which the Masking was 1 and the Harmonizing is listed as −1.
`CCCCCC1=C(C)CCC1=O` [Dihydrojasmone, 3-methyl-2-pentyl-2-cyclopentene-1-one] showed a Masking of 1 and a Harmonizing of 0.
`C=CC(C)CCCC(C)(C)O` (stereo not shown) [Dihydromyrcenol] came in with a Masking of 1.5 points and a Harmonizing of −1.
On to `CC(C)CC1CC(C)(O)CCO1` (stereo not shown) [Dihydroroseoxide, 4-methyl-2-(2-methylpropyl)tetrahydro-2H-4-pyranol], for which the Masking stood at 1.5 points and the Harmonizing is recorded as 0.
`CC(C)CCCC(C)CCO` (stereo not shown) [Dimethyl octanol]: the Masking is given as 1.5 points and the Harmonizing is 0.
For the molecule `CC(=O)OC(C)(C)Cc1ccccc1` [Dimethylbenzyl carbinyl acetate], the Masking is recorded as 1 and the Harmonizing is given as −1.
Molecule `c1ccc(Oc2ccccc2)cc1` [Diphenyl oxide] displayed a Masking of 1.5 points and a Harmonizing of 0.
Molecule `CCCCCCCCCCCC=O` [Dodecanal] gave a Masking of 1.5 points and a Harmonizing of −1.
`CCOC(=O)CC(C)=O` [Ethyl acetoacetate] showed a Masking of 3 and a Harmonizing of 1.
The corresponding values for `CCOC(=O)C(C)CC` (stereo not shown) [Ethyl-2-methyl butylate] are 3 and 1.
In turn, `CCCC(C)C(=O)OCC` (stereo not shown) [Ethyl-2-methyl valerate] registered a Masking of 3 and a Harmonizing of 1.
The matching figures for `CCOC(=O)C1OC1(C)c1ccccc1` (stereo not shown) [Ethyl-3-methyl-3-phenyl glycidate]: 2 and 0.
The molecule `C=CCc1ccc(O)c(OC)c1` [Eugenol] displayed a Masking of 1.5 points and a Harmonizing of 0.
`COC(=O)c1c(C)cc(O)c(C)c1O` [Evernyl, methyl dihydroxydimethyl benzoate] displayed a Masking of 0 and a Harmonizing of −1.
In turn, `C=C(C)C1CC=C(C)C(=O)C1` (stereo not shown) [Example 1-Carvone, 1-Carvone] came in with a Masking of 3 and a Harmonizing of 1.
On to `CCCCCCCCC=CCC=O` [Example 3-Dodecenal, 3-Dodecenal], for which the Masking was 0.5 points and the Harmonizing is listed as −1.
For the molecule `C=CCCCCCCCCO` [Example 9-Decen-1-ol, 9-Decen-1-ol], the Masking came out at 1.5 points and the Harmonizing is on record as 0.
`CCc1ccc(CC(C)(C)C=O)cc1` [Floralozone, p-ethyl-α,α-dimethyl phenyl propyl aldehyde] came in with a Masking of 1.5 points and a Harmonizing of 0.
